Results from ChEMBL document CHEMBL1201862, “PubChem BioAssay data set” (2004).
Where “and” joins values, the source holds several entries; their conditions need not be identical. Equal entries are not always repeated.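 Grown in 96-well plates, cells were treated for 48 hours with each compound at five concentrations. Insufficient inhibition: endpoint recorded as highest concentration tested. Here, GI50 denotes the concentration required for 50% inhibition of growth.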 Calls of active or inactive are those of the source. Rule as the data show it: active = GI50 up to about 1.1 µM and inactive = higher.

Legend:
Assay in all cases: inhibition of tumour cell growth, NCI panel, 48 h
KM-20L2 = system: KM-20L2
RXF 631 = system: RXF 631
SNB-78 = system: SNB-78
DLD-1 = system: DLD-1
DMS-114 = system: DMS-114
HOP-18 = system: HOP-18
Hs-578T = system: Hs-578T
T47D = system: T47D
BT-549 = system: BT-549

SMILES | GI50 (KM-20L2) | GI50 (RXF 631) | GI50 (SNB-78) | GI50 (DLD-1) | GI50 (DMS-114) | GI50 (HOP-18) | GI50 (Hs-578T) | GI50 (T47D) | GI50 (BT-549)
CSc1ccc(C2OC(=O)c3ccccc32)c2ccccc12 (stereo not given) | 67 µM (inactive) | > 100 µM (inactive) | 46.5 µM (inactive) | 86.5 µM (inactive) | 74.3 µM (inactive) | 40.6 µM (inactive) | – | – | –
C=CC1(C)CC(=O)C2(O)C(C)(O1)C(OC(C)=O)C(O)C1C(C)(C)CCC(O)C12C (stereo not given) | 110 µM (inactive) | > 100 µM (inactive) | 5.4 µM (inactive) | > 150 µM (inactive) | 52.8 µM (inactive) | 41.3 µM (inactive) | – | – | –
CCC(=O)OC[n+]1ccc2c(C)c3[nH]c4ccccc4c3c(C)c2c1 | 0.504 µM (active) | 0.504 µM (active) | 1.29 µM (inactive) | 0.229 µM (active) | 0.608 µM (active) | < 0.01 µM (active) | – | – | –
COC(=O)C(C(=O)C(=O)Nc1cccc(C)c1)C1=NC(N)SS1 (stereo not given) | > 100 µM (inactive) | > 100 µM (inactive) | > 100 µM (inactive) | > 100 µM (inactive) | > 100 µM (inactive) | > 100 µM (inactive) | – | – | –
NC1=C(NC(=O)Cc2ccc(F)cc2)C(=O)c2ccccc2C1=O | > 100 µM (inactive) | > 60.4 µM (inactive) | 26.1 µM (inactive) | > 33.3 µM (inactive) | 16 µM (inactive) | – | – | – | –
Cc1c(Cl)cccc1NC(=O)CC1Sc2ccccc2NC1=O (stereo not given) | 24.6 µM (inactive) and 22.4 µM (inactive) | – | 30 µM (inactive) and 48.6 µM (inactive) | 35 µM (inactive) and 24.1 µM (inactive) | 27.3 µM (inactive) and 18.5 µM (inactive) | 13.2 µM (inactive) and 15.1 µM (inactive) | 2.99 µM (inactive) | 25.5 µM (inactive) | 27 µM (inactive)
Cc1cnc2c(c1)C(=O)C1=C(OC(C)(C)CC1O)C2=O (stereo not given) | 17.7 µM (inactive) | > 10 µM (inactive) | – | 16 µM (inactive) | 10.4 µM (inactive) | 15.8 µM (inactive) | – | – | –
CNC(=S)NNC(=O)c1c(C)nc2sccn12 | > 100 µM (inactive) | > 100 µM (inactive) | – | > 100 µM (inactive) | – | 0.414 µM (active) | – | – | –
CC1=C(C(=O)Nc2ccccc2)C(c2cc(Cl)cc(Cl)c2)C(C(=O)Nc2ccccc2)=C(C)N1 | 9.06 µM (inactive) | 18 µM (inactive) | 17.1 µM (inactive) | 4.14 µM (inactive) | 4.26 µM (inactive) | 12.5 µM (inactive) | – | – | –
Cc1ccccc1-c1c(N)nc(N)nc1C(=O)Nc1nccs1 | > 100 µM (inactive) | > 100 µM (inactive) | > 100 µM (inactive) | > 100 µM (inactive) | > 100 µM (inactive) | > 100 µM (inactive) | – | – | –
C=CCNC1=NC(=O)C(CC(=O)Nc2ccc([N+](=O)[O-])cc2[N+](=O)[O-])S1 (stereo not given) | > 100 µM (inactive) | > 100 µM (inactive) | > 100 µM (inactive) | > 100 µM (inactive) | 66.5 µM (inactive) | > 100 µM (inactive) | – | – | –
CCCCCCCCCCCCCC(=O)NO | 7.64 µM (inactive) | 10.9 µM (inactive) | 19.8 µM (inactive) | 13.2 µM (inactive) | 3.6 µM (inactive) | 34.4 µM (inactive) | – | – | 1.16 µM (inactive)
O=C(O)c1ccc(C2=Cc3cc(Cl)ccc3OC2)cc1 | > 100 µM (inactive) | – | > 100 µM (inactive) | > 100 µM (inactive) | > 100 µM (inactive) | 55.1 µM (inactive) | – | – | –
CC(C)(C)OC(=O)N1N=NC2C3OC(CC3=O)C21 (stereo not given) | > 100 µM (inactive) | > 100 µM (inactive) | > 100 µM (inactive) | > 100 µM (inactive) | > 100 µM (inactive) | > 100 µM (inactive) | – | – | –
O=C(OCC1CO1)c1cccs1 (stereo not given) | > 100 µM (inactive) | > 100 µM (inactive) | > 100 µM (inactive) | > 100 µM (inactive) | > 100 µM (inactive) | – | – | – | –
Cn1cnc([N+](=O)[O-])c1Sc1nc2ccccc2s1 | 10.4 µM (inactive) | 4.84 µM (inactive) | 12.7 µM (inactive) | 5.07 µM (inactive) | 3.9 µM (inactive) | 0.286 µM (active) | – | – | –
CC12CCC(CC1)C(C)(C)O2 [EUCALYPTOL] | 38.8 µM (inactive) | > 100 µM (inactive) | 67.6 µM (inactive) | 25.9 µM (inactive) | 24.4 µM (inactive) | – | – | – | –
Cn1c(O)c(C(=O)Nc2ccc([N+](=O)[O-])cc2)c(=O)n(C)c1=S | 4.21 µM (inactive) | – | 2.18 µM (inactive) | 3.7 µM (inactive) | 2.27 µM (inactive) | 2.84 µM (inactive) | 0.617 µM (active) | – | 1.17 µM (inactive)
